From patent US7759345B2, “Antitumoral derivatives of ET-743” (priority 2001, dated 2010)
Like-named read-outs stand apart in the source and are kept apart here.

Experiments:
[1] = test system: A-549; experiment: Inhibition of cells growth by colorimetric assay (SRB), A-549; format: cell-based; details: for GI50 / LC50 (concentration for 50% cell killing): Homo sapiens, A549, 48 h
Method: (§1) 2°.—Inhibition of Cells Growth by Colorimetric Assay.
(§2) A colorimetric type of assay, using sulforhodamine B (SRB) reaction has been adapted for a quantitative measurement of cell growth and viability [following the technique described by Philip Skehan, et al. (1990), New colorimetric cytotoxicity assay for anticancer drug screening, J. Natl. Cancer Inst., 82:1107-1112]
(§3) This form of the assay employs 96 well cell culture microplates of 9 mm diameter (Faircloth, 1988; Mosmann, 1983). Most of the cell lines are obtained from American Type Culture Collection (ATCC) derived from different human cancer types.
(§4) Cells are maintained in RPMI 1640 10% FBS, supplemented with 0.1 g/l penicillin and 0.1 g/l streptomycin sulfate and then incubated at 37° C., 5% CO2 and 98% humidity. For the experiments, cells were harvested from subconfluent cultures using trypsin and resuspended in fresh medium before plating.
(§5) Cells are seeded in 96 well microtiter plates, at 5×10^3 cells per well in aliquots of 195 μl medium, and they are allowed to attach to the plate surface by growing in drug free medium for 18 hours. Afterward, samples are added in aliquots of 5 μl in a ranging from 10 to 10^−8 μg/ml, dissolved in DMSO/EtOH/PBS (0.5:0.5:99). After 48 hours exposure, the antitumor effect are measured by the SRB methodology: cells are fixed by adding 50 μl of cold 50% (wt/vol) trichloroacetic acid (TCA) and incubating for 60 minutes at 4° C. Plates are washed with deionized water and dried. One hundred μl of SRB solution (0.4% wt/vol in 1% acetic acid) is added to each microtiter well and incubated for 10 minutes at room temperature. Unbound SRB is removed by washing with 1% acetic acid. Plates are air dried and bound stain is solubilized with Tris buffer. Optical densities are read on a automated spectrophotometric plate reader at a single wavelength of 490 nm.
(§6) The values for mean+/−SD of data from triplicate wells are calculated. Some parameters for cellular responses can be calculated: GI=growth inhibition, TGI=total growth inhibition (cytostatic effect) and LC=cell killing (cytotoxic effect).
(§7) Obtained results may predict the usefulness of a certain drug as a potential cancer treatment. For this technique, compounds which show GI50 values smaller than 10 μg/ml are selected to continue with further studies. GI50's data allow to predict that not only could a drug be cystostatic, but also it could have a potential in terms of tumor reduction.

[2] = test system: HT-29; experiment: Inhibition of cells growth by colorimetric assay (SRB), HT-29; format: cell-based; details: for GI50 / LC50 (concentration for 50% cell killing): Homo sapiens, HT-29, 48 h
Method: as §1, §2, §3, §4, §5, §6, §7

[3] = read-out: A-549 LC50, SRB assay, 48 hours exposure
[4] = read-out: HT-29 LC50, SRB assay, 48 hours exposure
[5] = A-549, SRB, 48 hours exposure, read-out: GI50 A-549
[6] = read-out: LC50 A-549, A-549, SRB, 48 hours exposure
[7] = HT-29, SRB, 48 hours exposure, read-out: GI50 HT-29
[8] = read-out: LC50 HT-29, HT-29, SRB, 48 hours exposure
[9] = A-549, SRB, 48 hours exposure, read-out: A-549 GI50
[10] = read-out: A-549 LC50, A-549, SRB, 48 hours exposure
[11] = HT-29, SRB, 48 hours exposure, read-out: HT-29 GI50
[12] = read-out: HT-29 LC50, HT-29, SRB, 48 hours exposure
[13] = SRB assay, 48 hours exposure, read-out: A-549 GI50
[14] = SRB assay, 48 hours exposure, read-out: HT-29 GI50

Row | Compound | TGI A-549 ([1]; A-549, SRB, 48 hours exposure) | GI50 [1, 5] [nM] | LC50 (concentration for 50% cell killing) [1, 6] [nM] | TGI HT-29 ([2]; HT-29, SRB, 48 hours exposure) | GI50 [2, 7] [nM] | LC50 (concentration for 50% cell killing) [2, 8] [nM] | further results
1 | CCCC(=O)Oc1cc2c(cc1OC)[C@@]1(CS[C@@H]3c4c(OC(C)=O)c(C)c5c(c4[C@H](COC1=O)N1C3[C@H]3c4c(cc(C)c(OC)c4OC(=O)CCC)C[C@@H]([C@@H]1C#N)N3C(=O)OC(C)(C)C)OCO5)NCC2 (stereo partly shown) [Compound 193] |  |  |  |  |  |  | GI50 ([1]; read-out: A-549 GI50): 0.401 nM; LC50 (concentration for 50% cell killing) [1, 3]: 100 nM; A-549 TGI ([1]; SRB assay, 48 hours exposure): 4.01E-09; GI50 ([2]; read-out: HT-29 GI50): 0.1 nM; LC50 (concentration for 50% cell killing) [2, 4]: 20100 nM; HT-29 TGI ([2]; SRB assay, 48 hours exposure): 2.01E-08
2 | C=COC(=O)Oc1cc2c(cc1OC)[C@@]1(CS[C@@H]3c4c(OC(C)=O)c(C)c5c(c4[C@H](COC1=O)N1C3[C@H]3c4c(cc(C)c(OC)c4O)C[C@@H]([C@@H]1C#N)N3C)OCO5)NCC2 (stereo partly shown) [Compound 29] | 4.32E-09 | 2.16 | 10.8 | 2.16E-09 | 2.16 | 1080 | 
3 | COc1cc2c(cc1O)CCN[C@]21CS[C@@H]2c3c(OC(C)=O)c(C)c4c(c3[C@H](COC1=O)N1C2[C@H]2c3c(cc(C)c(O)c3O)C[C@@H]([C@@H]1C#N)N2C)OCO4 (stereo partly shown) [Compound 220] |  |  |  |  |  |  | GI50 ([1]; read-out: A-549 GI50): 132 nM; LC50 (concentration for 50% cell killing) [1, 3]: 6610 nM; A-549 TGI ([1]; SRB assay, 48 hours exposure): 3.96E-07; GI50 ([2]; read-out: H-T29 GI50): 132 nM; LC50 (concentration for 50% cell killing) ([2]; read-out: H-T29 LC50, SRB assay, 48 hours exposure): 1320 nM; H-T29 TGI ([2]; SRB assay, 48 hours exposure): 5.28E-07
4 | COc1cc2c(cc1OC(C)=O)CCN[C@]21CS[C@@H]2c3c(OC(C)=O)c(C)c4c(c3[C@H](COC1=O)N1C2[C@@H]2N[C@@H](Cc3cc(C)c(OC)c(O)c32)[C@@H]1O)OCO4 (stereo partly shown) [Compound 210] |  |  |  |  |  |  | LC50 (concentration for 50% cell killing) [1, 3]: 38000 nM; A-549 TGI ([1]; SRB assay, 48 hours exposure): 5.06E-13; LC50 (concentration for 50% cell killing) [2, 4]: 63300 nM; HT-29 TGI ([2]; SRB assay, 48 hours exposure): 6.33E-08
5 | COc1cc2c(cc1OC(=O)c1cc3ccccc3oc1=O)CCN[C@]21CS[C@@H]2c3c(OC(C)=O)c(C)c4c(c3[C@H](COC1=O)N1C2[C@H]2c3c(cc(C)c(OC)c3O)C[C@@H]([C@@H]1C#N)N2C)OCO4 (stereo partly shown) [Compound 21] | 1.06E-08 | 3.34 | 10600 | 1.06E-07 | 5.31 | 10600 | 
6 | COc1cc2c(cc1O)CCN[C@]21CS[C@@H]2c3c(OC(=O)CCCC[C@@H]4SCC5NC(=O)NC54)c(C)c4c(c3[C@H](COC1=O)N1C2[C@H]2c3c(cc(C)c(OC)c3O)C[C@@H]([C@@H]1C#N)N2C)OCO4 (stereo partly shown) [Compound 147] |  |  |  |  |  |  | A-549 TGI ([1]; A-549, SRB, 48 hours exposure): 6.84E-08; GI50 [1, 9]: 32.6 nM; LC50 (concentration for 50% cell killing) [1, 10]: 1050 nM; HT-29 TGI ([2]; HT-29, SRB, 48 hours exposure): 1.05E-07; GI50 [2, 11]: 19.7 nM; LC50 (concentration for 50% cell killing) [2, 12]: 10500 nM
7 | COc1cc2c(cc1OC)[C@@]1(CS[C@@H]3c4c(OC(C)=O)c(C)c5c(c4[C@H](COC1=O)N1C3[C@H]3c4c(cc(C)c(OC)c4O)C[C@@H]([C@@H]1C#N)N3C)OCO5)NCC2 (stereo partly shown) [Compound 34] | 2.84E-09 | 0.764 | 9.06 | 1.29E-08 | 0.809 | 12700 | 
8 | COc1cc2c(cc1OC(=O)C(F)(F)C(F)(F)C(F)(F)F)CCN[C@]21CS[C@@H]2c3c(OC(C)=O)c(C)c4c(c3[C@H](COC1=O)N1C2[C@H]2c3c(cc(C)c(OC)c3O)C[C@@H]([C@@H]1C#N)N2C)OCO4 (stereo partly shown) [Compound 13] | 3.24E-09 | 1.08 | 8.65 | 3.24E-10 | 0.324 | 10.8 | 
9 | COc1cc2c(cc1O)CCN[C@]21CS[C@@H]2c3c(OC(=O)CCCC[C@@H]4SCC5NC(=O)NC54)c(C)c4c(c3[C@H](COC1=O)N1C2[C@H]2c3c(cc(C)c(OC)c3OC(=O)CCCCC3SCC5NC(=O)NC53)C[C@@H]([C@@H]1C#N)N2C)OCO4 (stereo partly shown) [Compound 148] |  |  |  |  |  |  | A-549 TGI ([1]; A-549, SRB, 48 hours exposure): 5.19E-07; GI50 [1, 9]: 255 nM; LC50 (concentration for 50% cell killing) [1, 10]: 2880 nM; HT-29 TGI ([2]; HT-29, SRB, 48 hours exposure): 3.32E-07; GI50 [2, 11]: 140 nM; LC50 (concentration for 50% cell killing) [2, 12]: 786 nM
10 | CC(=O)Oc1c(C)c2c(c3c1[C@H]1SCC(=O)C(=O)OC[C@@H]3N3C1[C@H]1c4c(cc(C)c(O)c4O)C[C@@H]([C@@H]3C#N)N1C)OCO2 (stereo partly shown) [Compound 219] |  |  |  |  |  |  | GI50 [1, 13]: 8.24 nM; LC50 (concentration for 50% cell killing) [1, 3]: 16500 nM; A-549 TGI ([1]; SRB assay, 48 hours exposure): 1.65E-06; GI50 [2, 14]: 82.4 nM; LC50 (concentration for 50% cell killing) [2, 4]: 16500 nM; HT-29 TGI ([2]; SRB assay, 48 hours exposure): 1.65E-06
11 | C=COC(=O)N1CCc2cc(O)c(OC)cc2[C@@]12CS[C@@H]1c3c(OC(C)=O)c(C)c4c(c3[C@H](COC2=O)N2C1[C@H]1c3c(cc(C)c(OC)c3O)C[C@@H]([C@@H]2C#N)N1C)OCO4 (stereo partly shown) [Compound 33] | 2.50E-08 | 4.37 | 12700 | 1.25E-07 | 34.2 | 12500 | 
12 | C=COC(=O)Oc1cc2c(cc1OC)[C@@]1(CS[C@@H]3c4c(OC(C)=O)c(C)c5c(c4[C@H](COC1=O)N1C3[C@H]3c4c(cc(C)c(OC)c4OC(=O)OC=C)C[C@@H]([C@@H]1C#N)N3C)OCO5)N(C(=O)OC=C)CC2 (stereo partly shown) [Compound 31] | 9.17E-08 | 40.8 | 1020 | 8.15E-08 | 81.5 | 10200 | 
13 | CCCC(=O)Oc1cc2c(cc1OC)[C@@]1(CS[C@@H]3c4c(OC(C)=O)c(C)c5c(c4[C@H](COC1=O)N1C3[C@@H]3N[C@@H](Cc4cc(C)c(OC)c(O)c43)[C@@H]1O)OCO5)NCC2 (stereo partly shown) [Compound 211] |  |  |  |  |  |  | GI50 [1, 13]: 0.00367 nM; LC50 (concentration for 50% cell killing) [1, 3]: 61100 nM; A-549 TGI ([1]; SRB assay, 48 hours exposure): 6.11E-09; GI50 [2, 14]: 0.00122 nM; LC50 (concentration for 50% cell killing) [2, 4]: 61100 nM; HT-29 TGI ([2]; SRB assay, 48 hours exposure): 1.22E-12
14 | COc1cc2c(cc1OC)[C@@]1(CS[C@@H]3c4c(OC(C)=O)c(C)c5c(c4[C@H](COC1=O)N1C3[C@H]3c4c(cc(C)c(OC)c4OC)C[C@@H]([C@@H]1C#N)N3C)OCO5)NCC2 (stereo partly shown) [Compound 35] | 7.22E-08 | 5.68 | 2150 | 1.25E-08 | 5.41 | 12500 | 
15 | COc1cc2c(cc1OC(=O)OC(C)(C)C)CCN[C@]21CS[C@@H]2c3c(OC(=O)[C@H](C)NC(=O)OC(C)(C)C)c(C)c4c(c3[C@H](COC1=O)N1C2[C@H]2c3c(cc(C)c(OC)c3O)C[C@@H]([C@@H]1C#N)N2C)OCO4 (stereo partly shown) [Compound 125] |  |  |  |  |  |  | A-549 TGI ([1]; A-549, SRB, 48 hours exposure): 3.00E-09; GI50 [1, 9]: 1 nM; LC50 (concentration for 50% cell killing) [1, 10]: 8 nM; HT-29 TGI ([2]; HT-29, SRB, 48 hours exposure): 2.00E-10; GI50 [2, 11]: 0.2 nM; LC50 (concentration for 50% cell killing) [2, 12]: 3 nM
16 | C=COC(=O)Oc1cc2c(cc1OC)[C@@]1(CS[C@@H]3c4c(OC(C)=O)c(C)c5c(c4[C@H](COC1=O)N1C3[C@H]3c4c(cc(C)c(OC)c4O)C[C@@H]([C@@H]1C#N)N3C)OCO5)N(C(=O)OC=C)CC2 (stereo partly shown) [Compound 32] | 6.59E-09 | 2.2 | 11 | 6.60E-09 | 1.1 | 9.88 | 
17 | COc1cc2c(cc1O)CCN[C@]21CS[C@@H]2c3c(OC(C)=O)c(C)c4c(c3[C@H](COC1=O)N1C2[C@H]2c3c(cc(C)c(OC)c3OC)C[C@@H]([C@@H]1C#N)N2C)OCO4 (stereo partly shown) [Compound 36] | 1.03E-07 | 6.26 | 4140 | 2.55E-08 | 5.67 | 12700 | 
